Results published in US11304929B2, “Tosylacetate based compounds and derivatives thereof as PHGDH inhibitors” (priority 2017, dated 2022).
pIC50: −log10 of the molar value.

Key:
[1] = biological target: PHGDH (Homo sapiens (Human), UniProt O43175); experiment: 3-Phosphoglycerate Dehydrogenase (PHGDH) Fluorescence Intensity Assay, run at two NAD/3-PG ratios: PHGDH_HIGH_NAD/3-PG (250 μM NAD/500 μM 3-PG) and PHGDH_500_NAD/3-PG (500 μM NAD/500 μM 3-PG); type: biochemical; settings: 250 μM NAD/500 μM 3-PG; read-out: IC50 (PHGDH_HIGH_NAD/3-PG)
Sequence of PHGDH (O43175 2-533 limits assumed): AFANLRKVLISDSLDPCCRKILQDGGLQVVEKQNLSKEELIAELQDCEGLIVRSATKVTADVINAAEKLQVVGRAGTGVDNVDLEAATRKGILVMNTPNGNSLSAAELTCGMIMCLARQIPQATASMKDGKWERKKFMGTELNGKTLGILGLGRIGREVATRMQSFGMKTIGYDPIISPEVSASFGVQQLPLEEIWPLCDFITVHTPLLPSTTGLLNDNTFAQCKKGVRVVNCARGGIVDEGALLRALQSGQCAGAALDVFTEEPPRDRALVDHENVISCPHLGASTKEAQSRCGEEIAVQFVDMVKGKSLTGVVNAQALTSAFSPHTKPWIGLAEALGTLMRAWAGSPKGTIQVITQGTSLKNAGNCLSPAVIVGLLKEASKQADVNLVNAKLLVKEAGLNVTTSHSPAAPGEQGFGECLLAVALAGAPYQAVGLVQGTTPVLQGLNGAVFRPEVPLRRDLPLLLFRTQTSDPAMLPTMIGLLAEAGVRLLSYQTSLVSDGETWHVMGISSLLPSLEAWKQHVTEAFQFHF
Description: This assay is used to identify compounds which inhibit the enzymatic activity of PHGDH which catalyzes the reaction of 3-Phosphoglycerate (3-PG) and NAD to 3-Phosphohydroxypyruvate and NADH.
The produced NADH is used in a coupled reaction for Diaphorase mediated reduction of Resazurin to Resorufin which can be measured in a Fluorescence Intensity readout.
The full length version of PHGDH enzyme was expressed in E. coli with an N-terminal HIS-tag and a TEV cleavage site.
The 3-Phosphoglycerate substrate was purchased from Sigma. NAD, Diaphorase and Resazurin were purchased from Sigma Aldrich.
Compounds are dispensed onto assay plates (black, low volume, flat bottom 384 well, Corning) using an Access Labcyte Workstation with the Labcyte Echo 55× from a DMSO solution. For the chosen highest assay concentration of 100 μM, 150 nl of compound solution are transferred from a 10 mM DMSO compound stock solution. A series of 11 concentrations (10 1:5 steps) is transferred for each compound.
The assay has been performed at two different NAD/3-PG ratios (final assay concentrations):
Plates are kept at room temperature. After 240 minutes incubation time the fluorescence signal is measured in a PerkinElmer Envision HTS Multilabel Reader with an excitation wavelength at 530-560 nm and an emission wavelength at 590 nm.
Each plate contains negative controls (diluted DMSO instead of test compound; reaction as described with PHGDH protein) and positive controls (diluted DMSO instead of test compound; reaction as described with buffer instead of PHGDH protein). Negative and positive control values are used for normalization.
IC50 values are calculated and analyzed in the MEGALAB IC50 application using a 4 parametric logistic model.

[2] = system: MDA-MB-468; experiment: 13C3 Serine Assay MDA-MB-468 (13C3 serine levels by LC/MS/MS); type: cell-based; settings: Homo sapiens; MDA-MB-468 cells, 13C3 serine levels by LC/MS/MS; read-out: IC50 (13CSERINE)
Protocol: Cells are cultivated in Medium I in a 75 mL flask.
Day 1: 5000 cells in 180 μL Medium I/well were seeded into a 96-well plate. Plates were incubated at 37° C. in a 5% CO2 incubator overnight.
Day 2: 10 mM DMSO stock from test compounds were serially pre-diluted with Medium I (See dilution scheme: for the first well 20 μL DMSO stock are diluted with 180 μL Medium I. From this 1000 μM solution further seven 1:3 (1+2) dilution are prepared with Medium I). 20 μL of these pre-dilutions are transferred in duplicates to the 96-well plate of Day 1. After incubation at 37° C. in a CO2 incubator for 1 hour the medium was removed, 100 μL PBS (tempered to room temperature) added and subsequently removed again.
180 μL Medium II were then added per well and 20 μL of serial dilutions of test compounds in Medium II (as described before) were transferred per well as above. After 180 minutes incubation at 37° C. in a CO2 incubator the medium was again cautiously removed.
After the addition of 100 μL methanol: H2O (80:20, v:v, pre-cooled to −80° C.) the plates were sealed immediately and frozen at −80° C.
At day of measurement plates were thawn, centrifuged and the supernatant evaporated. The samples were resuspended in 100 μl water for tandem mass spectrometry.
^13C3 serine levels were analyzed with LC/MS/MS using Multiple Reaction Monitoring (MRM).
IC50 values were computed from these values using a 4 parametric logistic model.

SMILES	pIC50 [1]	pIC50 [2]
Cc1cc(Cl)c2cc(C(=O)N[C@H](C)c3ccc(S(=O)(=O)CC(=O)OCC(C)C)cc3)n(C)c2c1 [Example 09-013, 2-methylpropyl 2-{4-[(1R)-1-[(4-chloro-1,6-dimethyl-1H-indol-2-yl)formamido]ethyl]benzenesulfonyl}acetate]	4.71	7.15
COC(=O)CS(=O)(=O)c1ccc([C@@H](C)NC(=O)c2cc(-c3ccc(F)cc3)nn2C)cc1 [Example 02-001, methyl 2-{4-[(1R)-1-{[3-(4-fluorophenyl)-1-methyl-1H-pyrazol-5-yl]formamido}ethyl]benzenesulfonyl}acetate]	5.90	7.48
Cc1cc(Cl)c2cc(C(=O)N[C@H](C)c3ccc(S(=O)(=O)CC(=O)NO)cc3)n(C)c2c1 [Example 14-020, 4-chloro-N-[(1R)-1-{4-[(hydroxycarbamoyl)methanesulfonyl]phenyl}ethyl]-1,6-dimethyl-1H-indole-2-carboxamide]	6.76	6.87
Cc1cc2c(cc(C(=O)N[C@H](CO)c3ccc(S(=O)(=O)CC(=O)OC(C)C)cc3)n2C)c(Cl)c1Cl [Example 01-021, propan-2-yl 2-{4-[(1S)-1-[(4,5-dichloro-1,6-dimethyl-1H-indol-2-yl)formamido]-2-hydroxyethyl]benzenesulfonyl}acetate]	6.33	7.90
C[C@@H](NC(=O)c1cc(-c2ccc(F)cc2)nn1C)c1ccc(S(=O)(=O)CC(=O)OCC2(C)COC2)cc1 [Example 10-006, (3-methyloxetan-3-yl)methyl 2-{4-[(1R)-1-{[3-(4-fluorophenyl)-1-methyl-1H-pyrazol-5-yl]formamido}ethyl]benzenesulfonyl}acetate]	6.03	6.99
CC(=O)OCOC(=O)CS(=O)(=O)c1ccc([C@@H](C)NC(=O)c2cc(-c3ccccc3)nn2C)cc1 [Example 10-003, (acetyloxy)methyl 2-{4-[(1R)-1-[(1-methyl-3-phenyl-1H-pyrazol-5-yl)formamido]ethyl]benzenesulfonyl}acetate]	6.09	7.63
Cc1cc(Cl)c2cc(C(=O)N[C@H](C)c3ccc(S(=O)(=O)C(C)(C)C(=O)OC(C)C)cc3)n(C)c2c1 [Example 05-012, propan-2-yl 2-{4-[(1R)-1-[(4-chloro-1,6-dimethyl-1H-indol-2-yl)formamido]ethyl]benzenesulfonyl}-2-methylpropanoate]	4.60	6.04
CC(C)OC(=O)CS(=O)(=O)c1ccc([C@@H](C)NC(=O)c2cc3cc(Cl)c(-c4cnn(CCN5CCOCC5)c4)cc3n2C)cc1 [Example 01-026, propan-2-yl 2-{4-[(1R)-1-[(5-chloro-1-methyl-6-{1-[2-(morpholin-4-yl)ethyl]-1H-pyrazol-4-yl}-1H-indol-2-yl)formamido]ethyl]benzenesulfonyl}acetate]	5.87	7.44
